Broadly, the melting point is the temperature, or range, at which the solid turns liquid.

In series [1] the test system is pentagastrin-stimulated acid secretion of the perfused rat stomach. Nature of the series: Secretion-inhibiting action on the perfused rat stomach. The class given is in vivo. To be noted: anesthetized CD rat. The source says: In Table A which follows, the influence of the compounds of the formula 1 according to the invention on the pentagastrin-stimulated acid secretion of the perfused rat stomach after intraduodenal/intravenous administration in vivo is shown.
The abdomen of anesthetized rats (CD rat, female, 200-250 g; 1.5 g/kg i.m. urethane) was opened after tracheotomy by a median upper abdominal incision and a PVC catheter was fixed transorally in the esophagus and another via the pylorus such that the ends of the tubes just projected into the gastric lumen. The catheter leading from the pylorus led outward into the right abdominal wall through a side opening.
After thorough rinsing (about 50-100 ml), warm (37° C.) physiological NaCl solution was continuously passed through the stomach (0.5 ml/min, pH 6.8-6.9; Braun-Unita I). The pH (pH meter 632, glass electrode EA 147; φ=5 mm, Metrohm) and, by titration with a freshly prepared 0.01N NaOH solution to pH 7 (Dosimat 665 Metrohm), the secreted HCl were determined in the effluent in each case collected at an interval of 15 minutes.
The gastric secretion was stimulated by continuous infusion of 1 μg/kg (=1.65 ml/h) of i.v. pentagastrin (left femoral vein) about 30 min after the end of the operation (i.e. after determination of 2 preliminary fractions). The substances to be tested were administered intraduodenally (substance 7 intravenously) in a 2.5 ml/kg liquid volume 60 min after the start of the continuous pentagastrin infusion.
The body temperature of the animals was kept at a constant 37.8-38° C. by infrared irradiation and heat pads (automatic, stepless control by means of a rectal temperature sensor).

A value given as a limit tells only on which side of the number the result lay.

As for `Cc1cccc(C)c1CNc1cc(C(=O)N(C)C)nc2c(C)c(C)[nH]c12` [Example 14, 7-(2,6-Dimethyl-benzylamino)-2,3-dimethyl-1H-pyrrolo[3,2-b]pyridine-5-carboxylic acid dimethylamide], the “Inhibition of acid secretion (%)” value in series [1] (dose 1 μmol/kg i.d.) is on record as over 50%.

As for `CCc1cccc(C)c1CNc1cc(C(=O)N(C)C)nc2c(C)c(C)[nH]c12` [Example 7, 7-(2-Ethyl-6-methyl-benzylamino)-2,3-dimethyl-1H-pyrrolo[3,2-b]pyridine-5-carboxylic acid dimethylamide], the “Inhibition of acid secretion (%)” value in series [1] (dose 2 μmol/kg i.v.) was over 80%. `CCOC(=O)c1cc(NCc2c(C)cccc2CC)c2[nH]c(C)cc2n1` [Example 2, Ethyl[7-(2-ethyl-6-methyl-benzylamino)-2-methyl-1H-pyrrolo[3,2-b]pyridine-5-carboxylate]] yielded a melting point of 274 to 275 °C. `CCc1cccc(C)c1CNc1cc(Cl)nc2cc(C)[nH]c12` [Example 1, (5-Chloro-2-methyl-1H-pyrrolo[3,2-b]pyridin-7-yl)-(2-ethyl-6-methyl-benzyl)-amine] showed a melting point of 296 °C. With `CCc1cccc(C)c1CNc1cc(C(=O)N(C)C)nc2c(Br)c(C)[nH]c12` [Example 5, 3-Bromo-7-(2-ethyl-6-methyl-benzylamino)-2-methyl-1H-pyrrolo[3,2-b]pyridine-5-carboxylic acid dimethylamide], in series [1] (dose 1 μmol/kg i.d.), the “Inhibition of acid secretion (%)” value was over 30%. `CCOC(=O)c1cc(NCc2c(C)cccc2C)c2[nH]c(C)c(CO)c2n1` [Example 19, Ethyl[7-(2,6-dimethyl-benzylamino)-3-hydroxymethyl-2-methyl-1H-pyrrolo[3,2-b]pyridine-5-carboxylate]] had a melting point of 256 to 259 °C.

As for `CCc1cccc(C)c1CNc1cc(C(=O)N(C)C)nc2c(CO)c(C)[nH]c12` [Example 6, 7-(2-Ethyl-6-methyl-benzylamino)-3-hydroxymethyl-2-methyl-1H-pyrrolo[3,2-b]pyridine-5-carboxylic acid dimethylamide], the “Inhibition of acid secretion (%)” value in series [1] (dose 1 μmol/kg i.d.) is over 30%.

Compound `CCOC(=O)c1cc(NCc2c(C)cccc2C)c2[nH]c(C)cc2n1` [Example 9, Ethyl[7-(2,6-dimethyl-benzylamino)-2-methyl-1H-pyrrolo[3,2-b]pyridine-5-carboxylate]] gave a melting point of 254 °C. With `Cc1cccc(C)c1CNc1cc(C(=O)N(C)C)nc2c(Br)c(C)[nH]c12` [Example 12, 3-Bromo-7-(2,6-dimethyl-benzylamino)-2-methyl-1H-pyrrolo[3,2-b]pyridine-5-carboxylic acid dimethylamide], the “Inhibition of acid secretion (%)” value in series [1] (dose 3 μmol/kg i.d.) is over 60%.

These data come from patent US20070287726A1, “5-Substituted 1H-Pyrrolo [3,2-B] Pyridines” (Altana Pharma AG, priority 2004, published 2007).
